Experimental data: ChEMBL document CHEMBL1687795, “Mathematical modeling to characterize the inoculum effect” (2010)
≈ marks a conversion by molar mass, not a printed value. Calls of active or inactive are those of the source. No cut-off for these calls is given here.

Legend:
Escherichia coli [1] = experiment: Bactericidal activity against Escherichia coli ATCC 25922 using 10^5 CFU/ml inoculum assessed as log reduction in bacterial count at 4 times MIC after 24 hrs by time-kill study; format: functional
Escherichia coli [2] = experiment: Bactericidal activity against Escherichia coli ATCC 25922 using 10^8 CFU/ml inoculum assessed as log reduction in bacterial count at 256 times MIC after 24 hrs by time-kill study; format: functional
Escherichia coli [3] = experiment: Antimicrobial activity against Escherichia coli ATCC 25922 by broth macrodilution method in presence of beta-lactamase inhibitor Tazobactam; format: functional, organism-based
Escherichia coli [4] = experiment: Antimicrobial activity against Escherichia coli ATCC 25922 by broth macrodilution method; format: functional

CCN1CCN(C(=O)N[C@@H](C(=O)N[C@@H]2C(=O)N3[C@@H]2SC(C)(C)[C@@H]3C(=O)O)c2ccccc2)C(=O)C1=O [PIPERACILLIN]
FC (Escherichia coli [1]): >2
FC (Escherichia coli [2]): >2
Activity (Escherichia coli [3]): Active
MBC (Escherichia coli [4]): 2 µg/mL (≈ 3.86 µM)
MIC (Escherichia coli [4]): 2 µg/mL (≈ 3.86 µM)
